Values quoted from earlier work as cited in patent publication US11737985B2 (priority 2013, dated 2023).
Like-named read-outs stand apart in the source and are kept apart here.

Assays:
[1] = cited from earlier work; for mean concentration in plasma: cancer patients; for Cmax / Tmax: single dose 182 mg controlled-release tablet
[2] = in vivo; cited from earlier work

In the case of NNc1nncc2ccccc12 [hydralazine, 1-hydrazinophthalazine], the “mean concentration in plasma” value ([1]; fast acetylators, 182 mg daily controlled-release) is given as 239.1 ng/mL, the “mean concentration in plasma” value ([1]; slow acetylators, 83 mg daily controlled-release) is given as 259.2 ng/mL and the Cmax ([1]; fast acetylators, ± SD) is given as 208.4 ± 56.9 ng/mL. The Tmax ([1]; fast acetylators) was 2.8 ± 2.5 h, the Cmax ([1]; slow acetylators) was 470.4 ± 162.8 ng/mL and the Tmax ([1]; slow acetylators) was 4.4 ± 3.1 h. The systemic clearance [2] was “approximately 50 ml/kg/min”.
